Positions count from the first letter of the chain named. Read-outs that look alike come from different tables or passages of the source.

The target in one test is ALK3 (Homo sapiens, UniProt P36894). As to the kind of experiment: TR-FRET enzymatic ALK kinase assay, ALK3. (Time-resolved FRET reads energy transfer from a long-lived donor to a nearby acceptor.)
The target of the next test is T1, ALK5 (Homo sapiens, UniProt P36897).
T1 sequence (P36897 34-503): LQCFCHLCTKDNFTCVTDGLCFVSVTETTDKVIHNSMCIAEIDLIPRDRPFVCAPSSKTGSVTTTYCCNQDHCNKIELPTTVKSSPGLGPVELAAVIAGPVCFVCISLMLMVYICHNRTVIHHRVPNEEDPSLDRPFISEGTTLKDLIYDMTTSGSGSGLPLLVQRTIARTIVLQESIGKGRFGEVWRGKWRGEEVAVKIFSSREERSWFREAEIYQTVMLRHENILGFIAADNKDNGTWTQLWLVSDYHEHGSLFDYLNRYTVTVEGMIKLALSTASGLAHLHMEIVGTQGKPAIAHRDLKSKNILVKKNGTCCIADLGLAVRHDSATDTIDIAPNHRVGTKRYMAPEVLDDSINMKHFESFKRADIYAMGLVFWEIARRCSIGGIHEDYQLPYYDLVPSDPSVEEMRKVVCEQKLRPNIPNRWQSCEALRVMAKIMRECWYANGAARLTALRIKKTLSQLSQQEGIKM
As to the kind of experiment: TR-FRET enzymatic ALK kinase assay, ALK5.

Test [1] deals with T2, ALK2 (Mus musculus, UniProt P37172).
T2 construct: The C2C12 cell line was selected for the measurement of ALK2 activity using BMP6 as the agonist; host or cells: C2C12
T2 sequence (P37172 21-509): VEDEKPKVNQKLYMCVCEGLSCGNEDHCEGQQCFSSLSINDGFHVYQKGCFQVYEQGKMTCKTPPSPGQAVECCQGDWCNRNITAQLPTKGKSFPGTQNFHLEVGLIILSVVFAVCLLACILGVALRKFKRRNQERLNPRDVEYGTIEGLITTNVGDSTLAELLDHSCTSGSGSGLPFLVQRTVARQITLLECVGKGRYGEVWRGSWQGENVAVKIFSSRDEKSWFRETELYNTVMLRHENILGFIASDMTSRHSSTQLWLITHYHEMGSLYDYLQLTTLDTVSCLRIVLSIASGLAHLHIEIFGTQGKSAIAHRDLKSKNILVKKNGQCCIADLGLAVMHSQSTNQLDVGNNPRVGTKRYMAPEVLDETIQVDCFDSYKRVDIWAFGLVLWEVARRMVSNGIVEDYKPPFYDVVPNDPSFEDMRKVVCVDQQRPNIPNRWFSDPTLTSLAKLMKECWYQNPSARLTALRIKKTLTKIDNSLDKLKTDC
As to the kind of experiment: HTRF pSMAD1 cell-based ALK2 assay (C2C12 cells, BMP6 as agonist). Here is the method:
2. HTRF Cell-Based ALK1 and ALK2 Assays in 384-Well Plate Format We have developed a cell based ALK1 kinase assay and a cell-based ALK2 assay. The BAOEC cell line was employed for the measurement of ALK1 activity using BMP9 as the agonist. The C2C12 cell line was selected for the measurement of ALK2 activity using BMP6 as the agonist. The kinase specificity was defined by the specific cell line and agonist. The kinase activity was determined by the status of SMD 1/5/8 phosphorylation stimulated by the agonist.
HyClone Fetal Bovine Serum was obtained from GE healthcare life sciences (Logan, Utah). BMP6 and BMP9 were purchased from R&D System. […] The compound plates and the white solid MB assay plates were purchased from Greiner Bio-one (Monroe, N.C.).
HTRF optimization experiments were performed in 384 well plate format. […] Pre-starved cells were then plated in 384 well plate in the starvation medium (containing in 0.1% FBS). After 4 hours, compounds were added to the assay plate and incubated for 30 minutes. The assay plate was then added with BMP6 for C2C12 cells or BMP9 for BAOEC cells and incubated for 30 minutes.
HTRF assay was performed to measure the status of SMAD 1 phosphorylation after stimulated with the agonist (Table 3). This HTRF phospho SMAD1 cell assay was developed and optimized for the homogenous detection of phospho SMAD 1 levels in cells. […] The plate was incubated at room temperature for overnight.

A further test has as its target T3, ALK4 (Homo sapiens, UniProt P36896).
T3 sequence (P36896 24-505): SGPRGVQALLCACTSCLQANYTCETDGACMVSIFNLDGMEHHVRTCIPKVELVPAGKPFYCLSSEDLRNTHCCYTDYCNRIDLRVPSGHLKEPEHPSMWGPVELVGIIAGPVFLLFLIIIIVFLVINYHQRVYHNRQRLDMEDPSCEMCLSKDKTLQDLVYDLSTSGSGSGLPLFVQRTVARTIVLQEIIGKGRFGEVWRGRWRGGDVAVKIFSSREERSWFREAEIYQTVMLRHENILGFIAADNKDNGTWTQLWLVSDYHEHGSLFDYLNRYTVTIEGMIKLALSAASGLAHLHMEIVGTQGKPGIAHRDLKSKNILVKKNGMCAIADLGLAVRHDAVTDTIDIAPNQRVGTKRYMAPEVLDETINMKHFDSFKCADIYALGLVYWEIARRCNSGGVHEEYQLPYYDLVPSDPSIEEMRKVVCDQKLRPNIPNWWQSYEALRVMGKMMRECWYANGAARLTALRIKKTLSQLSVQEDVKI
As to the kind of experiment: TR-FRET enzymatic ALK kinase assay, ALK4.

A further test deals with ALK1 (Homo sapiens, UniProt P37023). As to the kind of experiment: TR-FRET enzymatic ALK kinase assay, ALK1.
Another test addresses ALK6 (Homo sapiens, UniProt O00238). As to the kind of experiment: TR-FRET enzymatic ALK kinase assay, ALK6.
For test [2], the target named is T4, ALK2 (Homo sapiens, UniProt Q04771).
T4 sequence (Q04771 21-509): T2 sequence (P37172 21-509) with V1M, Q10P, I121L, E162D, S310P
As to the kind of experiment: TR-FRET enzymatic ALK kinase assay, ALK2.

The mark [3] stands for this setting: cell-based assay, BMP6, read-out: Cell IC50 BMP6.
[4] abbreviates: HTRF assay, BMP6 as agonist, C2C12 cells, read-out: BMP6 HTRF.

ALK1, sequence (P37023 22-503): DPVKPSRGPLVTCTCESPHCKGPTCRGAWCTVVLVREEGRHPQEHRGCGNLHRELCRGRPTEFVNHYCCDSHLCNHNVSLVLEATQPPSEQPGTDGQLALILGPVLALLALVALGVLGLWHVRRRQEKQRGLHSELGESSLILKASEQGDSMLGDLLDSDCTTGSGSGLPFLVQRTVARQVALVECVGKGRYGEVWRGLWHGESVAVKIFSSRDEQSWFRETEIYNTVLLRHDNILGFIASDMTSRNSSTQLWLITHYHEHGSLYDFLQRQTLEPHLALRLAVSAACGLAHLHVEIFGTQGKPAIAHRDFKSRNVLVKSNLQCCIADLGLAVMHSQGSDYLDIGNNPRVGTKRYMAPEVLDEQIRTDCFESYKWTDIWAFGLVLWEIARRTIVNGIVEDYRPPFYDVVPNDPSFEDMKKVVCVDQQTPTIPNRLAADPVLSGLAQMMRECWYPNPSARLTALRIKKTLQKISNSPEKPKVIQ
ALK6, sequence (O00238 14-502): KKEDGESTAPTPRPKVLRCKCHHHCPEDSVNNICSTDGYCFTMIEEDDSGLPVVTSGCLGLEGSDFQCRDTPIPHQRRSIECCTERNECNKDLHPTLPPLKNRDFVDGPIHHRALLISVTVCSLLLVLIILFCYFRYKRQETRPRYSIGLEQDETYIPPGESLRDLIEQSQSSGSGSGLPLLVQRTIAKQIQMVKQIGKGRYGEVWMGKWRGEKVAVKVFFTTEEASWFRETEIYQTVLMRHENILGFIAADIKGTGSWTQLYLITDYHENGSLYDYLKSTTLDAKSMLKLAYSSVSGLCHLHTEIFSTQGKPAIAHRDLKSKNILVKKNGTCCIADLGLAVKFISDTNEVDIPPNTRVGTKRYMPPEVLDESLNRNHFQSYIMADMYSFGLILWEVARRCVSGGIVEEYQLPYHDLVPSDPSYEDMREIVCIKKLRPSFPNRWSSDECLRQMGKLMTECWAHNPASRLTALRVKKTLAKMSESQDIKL
ALK3, sequence (P36894 24-532): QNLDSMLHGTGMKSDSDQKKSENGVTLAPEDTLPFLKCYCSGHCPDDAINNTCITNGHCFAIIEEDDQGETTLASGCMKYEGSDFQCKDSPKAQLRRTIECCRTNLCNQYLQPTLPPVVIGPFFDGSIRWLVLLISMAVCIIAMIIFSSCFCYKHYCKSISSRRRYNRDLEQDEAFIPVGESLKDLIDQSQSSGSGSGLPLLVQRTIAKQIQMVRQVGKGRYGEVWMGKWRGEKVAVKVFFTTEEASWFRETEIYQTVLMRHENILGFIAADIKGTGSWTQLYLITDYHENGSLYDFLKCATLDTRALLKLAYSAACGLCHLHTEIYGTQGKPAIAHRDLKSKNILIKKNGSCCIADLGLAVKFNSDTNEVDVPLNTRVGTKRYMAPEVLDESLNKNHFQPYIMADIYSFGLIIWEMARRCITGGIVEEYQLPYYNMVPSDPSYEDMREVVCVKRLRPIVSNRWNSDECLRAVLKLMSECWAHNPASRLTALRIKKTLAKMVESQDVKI

As for `C[C@@H]1CNC[C@H](C)N1c1ccc(-c2cnc3c(-c4cccc(C(N)=O)c4)cnn3c2)cc1` [Compound 67, 3-(6-(4-((2R,6S)-2,6-dimethylpiperazin-1-yl)phenyl)pyrazolo[1,5-a]pyrimidin-3-yl)benzamide], the IC50 on ALK3 worked out at 310 nM; against ALK5, 8.4 µM; at ALK2 [1] (setting [3]), 155 nM; on ALK4 it was 2.6 µM; at ALK1, 83 nM; on ALK6, 2.1 µM. At ALK2 [2], this molecule came in with an IC50 of 33 nM.
For the molecule `C[C@@H]1CNC[C@H](C)N1c1ccc(-c2cnc3c(-c4cccc(CO)c4)cnn3c2)cc1` [Compound 74, (3-(6-(4-((2R,6S)-2,6-dimethylpiperazin-1-yl)phenyl)pyrazolo[1,5-a]pyrimidin-3-yl)phenyl)methanol], the IC50 is 1700 nM on ALK3; greater than 10 µM on ALK5; 80 nM on ALK2 [1] (setting [3]); greater than 10 µM against ALK4; 150 nM at ALK1; greater than 10 µM against ALK6. On ALK2 [2], the IC50 is 40 nM.
As for `CS(=O)(=O)c1cccc(-c2cnn3cc(-c4ccc(OC5(CN6CCCCC6)CC5)cc4)cnc23)c1` [Compound 134, 3-(3-(methylsulfonyl)phenyl)-6-(4-(1-(piperidin-1-ylmethyl)cyclopropoxy)phenyl)pyrazolo[1,5-a]pyrimidine], the IC50 against ALK3 was 1400 nM; on ALK5, greater than 10 µM; at ALK2 [1] (setting [4]) it was 270 nM; against ALK4, greater than 10 µM; against ALK1 it was 270 nM; against ALK6, greater than 10 µM. This molecule also displayed an IC50 at ALK2 [2] of 45 nM.
Regarding `CS(=O)(=O)c1cccc(-c2cnn3cc(-c4ccc(C(F)(F)CN5CCCCC5)cc4)cnc23)c1` [Compound 120, 6-(4-(1,1-difluoro-2-(piperidin-1-yl)ethyl)phenyl)-3-(3-(methylsulfonyl)phenyl)pyrazolo[1,5-a]pyrimidine], the IC50 at ALK3 is greater than 10000 nM; against ALK5, greater than 10 µM; at ALK2 [1] (setting [3]), 3600 nM; against ALK4, greater than 10 µM; at ALK1, greater than 10000 nM; against ALK6, greater than 10 µM. On ALK2 [2], this molecule gave an IC50 greater than 10000 nM.
In the case of `C[C@@H]1CNC[C@H](C)N1c1ccc(-c2cnc3c(-c4ccc(S(=O)(=O)C(F)(F)F)cc4)cnn3c2)cc1` [Compound 45, 6-(4-((2R,6S)-2,6-dimethylpiperazin-1-yl)phenyl)-3-(4-((trifluoromethyl)sulfonyl)phenyl)pyrazolo[1,5-a]pyrimidine], the IC50 at ALK3 is greater than 10000 nM; at ALK5, greater than 10 µM; on ALK2 [1] (setting [3]), 9160 nM; against ALK4 it was greater than 10 µM; at ALK1, greater than 10000 nM; against ALK6, greater than 10 µM. Besides, at ALK2 [2], the IC50 is greater than 10000 nM.
As for `C[C@@H]1CNC[C@H](C)N1c1ccc(-c2cnc3c(-c4cccc(C#N)c4)cnn3c2)cc1` [Compound 69, 3-(6-(4-((2R,6S)-2,6-dimethylpiperazin-1-yl)phenyl)pyrazolo[1,5-a]pyrimidin-3-yl)benzonitrile], the IC50 against ALK3 is greater than 10000 nM; against ALK5, greater than 10 µM; at ALK2 [1] (setting [3]), 2250 nM; on ALK4 it was greater than 10 µM; against ALK1, 930 nM; against ALK6, greater than 10 µM. Further, the IC50 against ALK2 [2] was found to be 140 nM.
As for `CS(=O)(=O)c1cccc(-c2cnn3cc(-c4ccc(CN5CCCC5)cc4)cnc23)c1` [Compound 164, 3-(3-(methylsulfonyl)phenyl)-6-(4-(pyrrolidin-1-ylmethyl)phenyl)pyrazolo[1,5-a]pyrimidine], the IC50 came out at 390 nM against ALK3; 8.2 µM against ALK5; 180 nM on ALK2 [1] (setting [4]); 4.4 µM on ALK4; 33 nM against ALK1; 9.8 µM against ALK6. The molecule also returned an IC50 on ALK2 [2] of 3 nM.
Take `CS(=O)(=O)c1cccc(-c2cnn3cc(-c4ccc(C(F)(F)CN5CCOCC5)cc4)cnc23)c1` [Compound 121, 4-(2,2-difluoro-2-(4-(3-(3-(methylsulfonyl)phenyl)pyrazolo[1,5-a]pyrimidin-6-yl)phenyl)ethyl)morpholine]: the IC50 at ALK3 is greater than 10000 nM; against ALK5, greater than 10 µM; at ALK2 [1] (setting [3]) it was 836 nM; on ALK4, greater than 10 µM; at ALK1, 690 nM; at ALK6, greater than 10 µM. Also, the IC50 against ALK2 [2] came out at 350 nM.
Take `O=[S+]([O-])(c1cccc(-c2cnn3cc(-c4ccc(CN5CCCCC5)cc4)cnc23)c1)C1CC1` [Compound 125, 3-(3-(cyclopropylsulfonyl)phenyl)-6-(4-(piperidin-1-ylmethyl)phenyl)pyrazolo[1,5-a]pyrimidine]: the IC50 was greater than 10000 nM on ALK3; greater than 10 µM at ALK5; less than 1 nM on ALK2 [1] (setting [3]); greater than 10 µM against ALK4; 430 nM at ALK1; 8.4 µM against ALK6. This molecule also yielded an IC50 at ALK2 [2] of 66 nM.
Take `C[C@@H]1CNC[C@H](C)N1c1ccc(-c2cnc3c(-c4ccc(CS(N)(=O)=O)cc4)cnn3c2)cc1` [Compound 71, (4-(6-(4-((2R,6S)-2,6-dimethylpiperazin-1-yl)phenyl)pyrazolo[1,5-a]pyrimidin-3-yl)phenyl)methanesulfonamide]: the IC50 on ALK3 is greater than 10000 nM; on ALK5, greater than 10 µM; at ALK2 [1] (setting [3]), 22000 nM; at ALK4, greater than 10 µM; on ALK1 it was greater than 10000 nM; against ALK6, greater than 10 µM. On ALK2 [2], this molecule yielded an IC50 of 5100 nM.
